Assay: xn = mol fraction of the nth substance listed

ClC(Cl)=C(Cl)Cl + C1CCCCC1
303.15 K, 101 kPa
Conditions	viscosity [mPa·s]
x1 = 0.1695	0.762
x1 = 0.2317	0.777
x1 = 0.2698	0.75
x1 = 0.3794	0.742
x1 = 0.4194	0.74
x1 = 0.4306	0.75
x1 = 0.4966	0.738
x1 = 0.5117	0.751
x1 = 0.5532	0.741
x1 = 0.5969	0.751
x1 = 0.6182	0.746
x1 = 0.6612	0.758
x1 = 0.7242	0.764
x1 = 0.7644	0.771
x1 = 0.8345	0.775
x1 = 0.8383	0.781
x1 = 0.9204	0.8

CC(C)CCl + C1CCOC1
viscosity [mPa·s], 101 kPa
Conditions	298.15 K	313.15 K
x2 = 0.0537	0.4311	0.368
x2 = 0.1037	0.4325	0.3694
x2 = 0.2081	0.4353	0.3723
x2 = 0.3079	0.4379	0.3751
x2 = 0.41	0.4409	0.3781
x2 = 0.5085	0.4442	0.381
x2 = 0.5964	0.4472	0.3837
x2 = 0.705	0.4512	0.3871
x2 = 0.8051	0.455	0.3904
x2 = 0.8989	0.4589	0.3938
x2 = 0.951	0.461	0.3957

CCCCCCCC + CCO
298.15 K, 101.33 kPa
Conditions	viscosity [mPa·s]
x2 = 0.0986	0.523
x2 = 0.2153	0.533
x2 = 0.3204	0.557
x2 = 0.4431	0.603
x2 = 0.6117	0.686
x2 = 0.7378	0.779
x2 = 0.8362	0.873
x2 = 0.9134	0.973
x2 = 0.9773	1.071

CCCCCCCCCCCCCC + c1ccccc1
Conditions	viscosity [mPa·s]
298 K, 101 kPa, x2 = 0.5	1.239
298.15 K, 101 kPa, x1 = 0.1005	0.696
298.15 K, 101 kPa, x1 = 0.2025	0.803
298.15 K, 101 kPa, x1 = 0.3001	0.909
298.15 K, 101 kPa, x1 = 0.3948	1.038
298.15 K, 101 kPa, x1 = 0.469	1.168
298.15 K, 101 kPa, x1 = 0.5776	1.318
298.15 K, 101 kPa, x1 = 0.6954	1.468
298.15 K, 101 kPa, x1 = 0.8004	1.664
298.15 K, 101 kPa, x1 = 0.9094	1.86
298.15 K, 101.33 kPa, x1 = 0.04444	0.6498
298.15 K, 101.33 kPa, x1 = 0.09068	0.6807
298.15 K, 101.33 kPa, x1 = 0.2125	0.8158
298.15 K, 101.33 kPa, x1 = 0.4169	1.079
298.15 K, 101.33 kPa, x1 = 0.5121	1.221
298.15 K, 101.33 kPa, x1 = 0.6271	1.423
298.15 K, 101.33 kPa, x1 = 0.7139	1.579
298.15 K, 101.33 kPa, x1 = 0.8006	1.716
298.15 K, 101.33 kPa, x1 = 0.8822	1.842
303.15 K, 101 kPa, x1 = 0.1005	0.653
303.15 K, 101 kPa, x1 = 0.2025	0.748
303.15 K, 101 kPa, x1 = 0.3001	0.842
303.15 K, 101 kPa, x1 = 0.3948	0.961
303.15 K, 101 kPa, x1 = 0.469	1.081
303.15 K, 101 kPa, x1 = 0.5776	1.211
303.15 K, 101 kPa, x1 = 0.6954	1.341
303.15 K, 101 kPa, x1 = 0.8004	1.513
303.15 K, 101 kPa, x1 = 0.9094	1.684
308.15 K, 101 kPa, x1 = 0.1005	0.611
308.15 K, 101 kPa, x1 = 0.2025	0.699
308.15 K, 101 kPa, x1 = 0.3001	0.786
308.15 K, 101 kPa, x1 = 0.3948	0.894
308.15 K, 101 kPa, x1 = 0.469	1.002
308.15 K, 101 kPa, x1 = 0.5776	1.115
308.15 K, 101 kPa, x1 = 0.6954	1.228
308.15 K, 101 kPa, x1 = 0.8004	1.384
308.15 K, 101 kPa, x1 = 0.9094	1.54
318 K, 101 kPa, x2 = 0.5	0.9217
